Results on two compounds are retold here after patent US20200371122A1, “BIOMARKER FOR SENESCENT CELLS” (Buck Institute for Research on Aging, priority 2017, published 2020).

What all share (assay type): cell-based, human
Assay [1] has as its system IMR-90 fibroblasts. Particulars: for number of cells following irradiation: 5 Gy IR, 10 days. As to the method:
Human fetal lung fibroblasts (IMR-90) were cultured in Dulbecco's modified eagle medium (DMEM) supplemented with 10% FBS and penicillin/streptomycin. LL 29 (AnHa) cells were obtained from the ATCC and growth to confluence using the ATCC protocol, but were subcultured as described for IMR-90 before initiation of all experiments. Quiescence was induced by replacing culture media with media containing 0.2% FBS. MCF-7 and MDA-MB-231 breast cancer cells were cultured in RPMI supplemented with 10% FBS and penicillin/streptomycin. All cells were cultured at 3% O2, and used between 25 and 40 population doublings. All cells were mycoplasma free.
RNA was extracted from cells or tissues using commercially available kits (Isolate II—Bioline for cells; Direct-zol—Zymo for tissues) according to the manufacturer's instructions. cDNA synthesis was performed using a High Capacity cDNA Reverse Transcription Kit (Thermo Fisher) according to the manufacturer's instructions. Quantitative PCR was performed on a LightCycler 480 II (Roche) using primers and probes designed for the Universal Probe Library. Primers and probes used for human transcripts were ACTB: 5′-CCAACCGCGAGAAGATGA (SEQ ID NO:1), 5′-TCCATCACGATGCCAGTG (SEQ ID NO:2), Probe #64; TUBA: 5′-cttcgtctccgccatcag (SEQ ID NO:3), 5′-ttgccaatctggacacca (SEQ ID NO:4), Probe #58; ALOX5: 5′-[…] (SEQ ID NO:5), 5′-[…] (SEQ ID NO:6), Probe #64; ALOX5AP: 5′-ggtctgcggggctacttt (SEQ ID NO:7), 5′-[…] (SEQ ID NO:8), Probe #18; ALOX12: 5′-[…] (SEQ ID NO:9), 5′-agccaggtcgtcaggag (SEQ ID NO:10), Probe #32; ALOX15: 5′-[…] (SEQ ID NO:11), 5′-[…] (SEQ ID NO:12), Probe #76; ALOX15B: 5′-[…] (SEQ ID NO:13), 5′-actgggaggcgaagaagg (SEQ ID NO:14), Probe #51; AKR1C1: 5′-catgcctgtcctgggattt (SEQ ID NO:15), 5′-[…] (SEQ ID NO:16), Probe #49; AKR1C2: 5′-ctatgcgcctgcagaggt (SEQ ID NO:17), 5′-[…] (SEQ ID NO:18), Probe #31; AKR1C3: 5′-[…] (SEQ ID NO:19), 5′-[…] (SEQ ID NO:20), Probe #78; CYSLTR2: 5′-[…] (SEQ ID NO:21), 5′-[…] (SEQ ID NO:22), Probe #18; DPEP1: 5′-gacgtcctgaggctggtg (SEQ ID NO:23), 5′-[…] (SEQ ID NO:24), Probe #9 (SEQ ID NO:25), ELOVL2: 5′-[…] (SEQ ID NO:26), 5′-[…] (SEQ ID NO:27), Probe #53; ELOVL4: 5′-catttggcccatggattc (SEQ ID NO:28), 5′-[…] (SEQ ID NO:29), Probe #31; ELOVL5: 5′-cccttccatgcgtccata (SEQ ID NO:30), 5′-[…] (SEQ ID NO:31), Probe #31; EPHX2: 5′-ttctgctggacaccctgaa (SEQ ID NO:32), 5′-[…] (SEQ ID NO:33), Probe #45; GPX4: 5′-ttcccgtgtaaccagttcg (SEQ ID NO:34), 5′-[…] (SEQ ID NO:35), Probe #36; LTA4H: 5′-ctgctctcacggtccagtc (SEQ ID NO:36), 5′-[…] (SEQ ID NO:37), Probe #64; LTBR2: 5′-[…] (SEQ ID NO:38), 5′-[…] (SEQ ID NO:39), Probe #33; LTC4S: 5′-[…] (SEQ ID NO:40), 5′-[…] (SEQ ID NO:41), Probe #18; PTGDS: 5′-[…] (SEQ ID NO:42), 5′-[…] (SEQ ID NO:43), Probe #36; PTGES: 5′-agagatgcctgcccacag (SEQ ID NO:44), 5′-tggccaccacgtacatctt (SEQ ID NO:45), Probe #4; PTGES2: 5′-[…] (SEQ ID NO:46), 5′-[…] (SEQ ID NO:47), Probe #49; PTGES3 (SEQ ID NO:48), 5′-[…] (SEQ ID NO:49), 5′-[…] (SEQ ID NO:50), Probe #48; PTGIS: 5′-[…] (SEQ ID NO:51), 5′-[…] (SEQ ID NO:52), Probe #45; PTGR1: 5′-atgatggggcagcaagtg (SEQ ID NO:53), 5′-cccatcagaaatggagtgc (SEQ ID NO:54), Probe #64; PTGS1: 5′-[…] (SEQ ID NO:55), 5′-gtggtggtccatgttcctg (SEQ ID NO:56), Probe #81; PTGS2: 5′-gatccccagggctcaaac (SEQ ID NO:57), 5′-[…] (SEQ ID NO:58), Probe #61; TBXAS1: 5′-[…] (SEQ ID NO:59), 5′-tgcctcccgtgtgaatct (SEQ ID NO:60), Probe #73; AREG: 5′-[…] (SEQ ID NO:61), 5′-[…] (SEQ ID NO:62), Probe #73; CCL2: 5′-AGTCTCTGCCGCCCTTCT (SEQ ID NO:63), 5′-GTGACTGGGGCATTGATTG (SEQ ID NO:64), Probe #40; CCL27: 5′-[…] (SEQ ID NO:65), 5′-gctgggtggcagtaggaat (SEQ ID NO:66), Probe #18; CXCL1: 5′-[…] (SEQ ID NO:67), 5′-[…] (SEQ ID NO:68), Probe #52; HGF: 5′-[…] (SEQ ID NO:69), 5′-[…]

The subject of the next assay is PPARγ. As to the kind of experiment: PPARγ luciferase reporter in irradiated IMR-90 fibroblasts. Particulars: senescent cells, 10 days. An excerpt: Lentiviral NF-κB reporter constructs (SA Biosciences) and baculoviral PPAR gamma constructs (Signosis) were transduced into proliferating cells. Following treatment, luciferase was extracted using Passive Lysis Buffer (Promega) and analyzed using a commercially available kit (Promega) using a Perkin-Elmer Victor™ X3 luminometer.
A general note: A reporter such as luciferase makes a cellular process visible.

Assay [2] deals with IMR-90 fibroblasts. As to the kind of experiment: Oncogenic ras-induced senescence of IMR-90 fibroblasts. Particulars: RasV12 lentivirus, 7 days treatment. The source says:
Senescence was induced by irradiation with 10 Gy of ionizing radiation. Non-senescent controls (proliferating or quiescent) were placed in the irradiator for an identical period of time without turning on the irradiator. Oncogene-induced senescence was induced via lentiviral overexpression of HRAS^V12, as described previously (Wiley et al. (2016) Cell Metab. 23: 303-314).

Turning to `CS(=O)(=O)Nc1ccc([N+](=O)[O-])cc1OC1CCCCC1` [NS-398], the “number of cells following irradiation” value in the assay on IMR-90 fibroblasts [1] was “significantly increased”. Further, the “cell number relative to DMSO-treated SEN(IR) cells” value in the assay with IMR-90 fibroblasts [1] (SEN(IR) cells counted for IL-6 ELISA normalization) is “increase in cell number”. This compound also displayed a PPARγ activation reduced with PPARγ of around 50%.
Consider `CC(c1cc2ccccc2s1)N(O)C(N)=O` (centres unmarked) [zileuton], for which the “ras-induced senescence (IL-6 secretion, EdU incorporation, colony formation)” value in the assay on IMR-90 fibroblasts [2] was “blunting”. Also, the “number of cells following irradiation” value in the assay on IMR-90 fibroblasts [1] is listed as “mildly increased”.
